According to ChEMBL document CHEMBL6114963, “Discovery and preclinical evaluations of drug candidate DA-0157 capable of overcoming EGFR drug-resistant mutation C797S and EGFR/ALK co-mutations” (Eur J Med Chem, 2025):
Blank lines part the entries; values can stand above or below the compound they belong to.

Tests used:
BaF3 [1] = assay: Antiproliferative activity against mouse BaF3 cells harboring EML4-ALK assessed as inhibition of cell growth incubated for 72 hrs by CellTiter-Glo assay; type: functional, cell-based; conditions: BaF3, 72 h
BaF3 [2] = assay: Antiproliferative activity against mouse BaF3 cells harboring wild-type EGFR assessed as inhibition of cell growth incubated for 72 hrs by CellTiter-Glo assay; type: functional, cell-based; conditions: BaF3, 72 h
BaF3 [3] = assay: Antiproliferative activity against mouse BaF3 cells harboring EGFR Del19/T790M/C797S mutant assessed as inhibition of cell growth incubated for 72 hrs by CellTiter-Glo assay; type: functional, cell-based; conditions: BaF3, 72 h
BaF3 [4] = assay: Antiproliferative activity against mouse BaF3 cells harboring EML4-ALK-L1196M mutant assessed as inhibition of cell growth incubated for 72 hrs by CellTiter-Glo assay; type: functional, cell-based; conditions: BaF3, 72 h
BaF3 [5] = assay: Antitumor activity against mouse BaF3 cells harbouring EML-4-ALK-L1196M mutant allografted in female BALB/c nude mouse assessed as tumor growth inhibition at 46 mg/kg, po administered once daily for 11 days by vernier caliper based analysis relative to control; type: functional; conditions: BaF3, 264 h, time 11 day, read-out: TGI
[6] = Potency index, ratio of Brigatinib IC50 to test compound IC50 for antiproliferative activity against mouse BaF3 cells harboring EGFR Del19/T790M/C797S mutant assessed as inhibition of cell growth incubated for 72 hrs by CellTiter-Glo assay; type: functional
BaF3 [7] = assay: Antitumor activity against mouse BaF3 cells harbouring EML-4-ALK-L1196M mutant allografted in female BALB/c nude mouse assessed as tumor growth inhibition at 20 mg/kg, po administered once daily for 11 days by vernier caliper based analysis relative to control; type: functional; conditions: BaF3, 264 h, time 11 day, read-out: TGI
NCI-H3122 = assay: Antiproliferative activity against human NCI-H3122 cells harbouring EML4-ALK assessed as inhibition of cell growth incubated for 72 hrs by CellTiter-Glo Luminescent Cell Viability Assay; type: functional, cell-based; conditions: NCI-H3122, 72 h
[8] = Tmax in male Sprague-Dawley rat plasma at 10 mg/kg, po measured upto 72 hrs; type: ADME, organism-based
[9] = Toxicity in Sprague-Dawley rat assessed as maximum tolerated dose administered as single po dose measured for 14 days; type: organism-based; conditions: in vivo, time 14 day
BaF3 [10] = assay: Antiproliferative activity against mouse BaF3 cells harbouring EML4-ALK-C1156Y mutant assessed as inhibition of cell growth incubated for 72 hrs by CellTiter-Glo Luminescent Cell Viability Assay; type: functional, cell-based; conditions: BaF3, 72 h
[11] = Toxicity in Sprague-Dawley rat blood assessed as adverse effect at 17.5 mg/kg, po administered once daily for 7 days; type: organism-based; conditions: in vivo, 168 h, time 7 day
[12] = Toxicity in female Sprague-Dawley rat assessed as animal death at 75 mg/kg, po administered for 14 days; type: organism-based; conditions: in vivo, 336 h, time 14 day
[13] = Cmax in male Sprague-Dawley rat plasma at 10 mg/kg, po measured upto 72 hrs; type: ADME, organism-based
[14] = Toxicity in male Sprague-Dawley rat assessed as animal death at 125 mg/kg, po administered for 14 days; type: organism-based; conditions: in vivo, 336 h, time 14 day
[15] = MRT (0 to infinity) in male Sprague-Dawley rat plasma at 10 mg/kg, po measured upto 72 hrs; type: ADME, organism-based
[16] = Half life in male Sprague-Dawley rat plasma at 10 mg/kg, po measured upto 72 hrs; type: ADME, organism-based
[17] = Toxicity in male Sprague-Dawley rat assessed as animal death at 75 mg/kg, po administered for 14 days; type: organism-based; conditions: in vivo, 336 h, time 14 day
[18] = AUC (0 to infinity) in male Sprague-Dawley rat plasma at 10 mg/kg, po measured upto 72 hrs; type: ADME, organism-based
[19] = Toxicity in female Sprague-Dawley rat assessed as animal death at 200 mg/kg, po administered for 14 days; type: organism-based; conditions: in vivo, 336 h, time 14 day
[20] = Toxicity in male Sprague-Dawley rat assessed as animal death at 200 mg/kg, po administered for 14 days; type: organism-based; conditions: in vivo, 336 h, time 14 day
[21] = Toxicity in female Sprague-Dawley rat assessed as animal death at 125 mg/kg, po administered for 14 days; type: organism-based; conditions: in vivo, 336 h, time 14 day
BaF3 [22] = assay: Antitumor activity against mouse BaF3 cells harbouring EML-4-ALK-L1196M mutant allografted in female BALB/c nude mouse assessed as tumor growth inhibition at 37 mg/kg, po administered once daily for 11 days by vernier caliper based analysis relative to control; type: functional; conditions: BaF3, 264 h, time 11 day, read-out: TGI
A-431 = assay: Antiproliferative activity against human A-431 cells harbouring wild-type EGFR assessed as inhibition of cell growth incubated for 72 hrs by CellTiter-Glo Luminescent Cell Viability Assay; type: functional, cell-based; conditions: A-431, 72 h
PC-9 = assay: Antiproliferative activity against human PC-9 cells harbouring EGFR del19/T790M/C797S mutant assessed as inhibition of cell growth incubated for 72 hrs by CellTiter-Glo Luminescent Cell Viability Assay; type: functional, cell-based; conditions: PC-9, 72 h
[23] = Antiproliferative activity against human NCI-H1975 cells harbouring EGFR del19/T790M/C797S mutant assessed as inhibition of cell growth incubated for 72 hrs by CellTiter-Glo Luminescent Cell Viability Assay; type: functional, cell-based; conditions: NCI-H1975, 72 h
BaF3 [24] = assay: Antitumor activity against mouse BaF3 cells harbouring EML-4-ALK-L1196M mutant allografted in female BALB/c nude mouse assessed as tumor growth inhibition at 100 mg/kg, po administered once daily for 11 days by vernier caliper based analysis relative to control; type: functional, organism-based; conditions: time 11.0 day
[25] = Antitumor activity against patient derived LU2445 lung cancer cells harbouring EML4-ALK model assessed as tumor growth inhibition po dose administered for 25 days by vernier caliper based analysis relative to control; type: functional, Homo sapiens; conditions: time 25 day
BaF3 [26] = assay: Antitumor activity against mouse BaF3 cells harbouring EML-4-ALK-L1196M mutant allografted in female BALB/c nude mouse assessed as tumor growth inhibition at 25 mg/kg, po administered once daily for 11 days by vernier caliper based analysis relative to control; type: functional; conditions: BaF3, 264 h, time 11 day, read-out: TGI
[27] = Potency index, ratio of Brigatinib IC50 to test compound IC50 for antiproliferative activity against mouse BaF3 cells harboring EML4-ALK-L1196M mutant assessed as inhibition of cell growth incubated for 72 hrs by CellTiter-Glo assay; type: functional

IC50 (BaF3 [1]): 7 nM
IC50 (BaF3 [2]): 1780 nM
IC50 (BaF3 [3]): 190 nM
IC50 (BaF3 [4]): 16 nM
SMILES: COc1cc(N2CCC(N3CCN(C)CC3)CC2)ccc1Nc1ncc(Cl)c(Nc2ccc(C)cc2P(C)(C)=O)n1

SMILES: C[C@@H]1CN(C(=O)c2ccc(NC(=O)c3cc(O[C@H](C)c4c(Cl)ccc(F)c4Cl)c(N)nn3)cc2)C[C@H](C)N1 [ENSARTINIB]
inhibition in vivo at 46 mg/kg (BaF3 [5]): -32.4%

IC50 (BaF3 [1]): 7 nM
IC50 (BaF3 [2]): 820 nM
IC50 (BaF3 [3]): 26 nM
IC50 (BaF3 [4]): 18 nM
SMILES: COc1cc(N2CCC(N3CCN(C)CC3)CC2)c(C)cc1Nc1ncc(Cl)c(Nc2ccccc2P(C)(C)=O)n1
Ratio [6]: 7

SMILES: C[C@H]1Oc2cc(cnc2N)-c2c(nn(C)c2C#N)CN(C)C(=O)c2ccc(F)cc21 [LORLATINIB]
inhibition in vivo at 20 mg/kg (BaF3 [7]): 129%

SMILES: COc1cc(N2CCC(N3CCN(C)CC3)CC2)ccc1Nc1ncc(Cl)c(Nc2ccccc2P(C)(C)=O)n1 [BRIGATINIB]
IC50 (NCI-H3122): 14 nM
Tmax [8]: 3 h
IC50 (BaF3 [1]): 4 nM
MTD at 336 h [9]: 75 mg/kg
IC50 (BaF3 [10]): 190 nM
Activity [11]: Toxic
Activity [12]: Toxic
Cmax [13]: 1930 ng/mL
IC50 (BaF3 [2]): 1650 nM
Activity [14]: Toxic
MRT inf [15]: 9.7 h
half-life [16]: 18.6 h
Activity [17]: Toxic
IC50 (BaF3 [3]): 180 nM
AUC(0-inf) [18]: 21600 ng·h/mL
Activity [19]: Toxic
Activity [20]: Toxic
Activity [21]: Toxic
IC50 (BaF3 [4]): 10 nM
inhibition in vivo at 37 mg/kg (BaF3 [22]): 94.8%

IC50 (A-431): 650 nM
IC50 (PC-9): 9510 nM
SMILES: C#Cc1cccc(Nc2ncnc3cc(OCCOC)c(OCCOC)cc23)c1 [ERLOTINIB]
IC50 [23]: 4930 nM

IC50 (NCI-H3122): 120 nM
IC50 (BaF3 [1]): 20 nM
IC50 (BaF3 [4]): 160 nM
SMILES: C[C@@H](Oc1cc(-c2cnn(C3CCNCC3)c2)cnc1N)c1c(Cl)ccc(F)c1Cl [CRIZOTINIB]
TGI (BaF3 [24]): No effect
TGI [25]: 18%

SMILES: Cc1cc(Nc2ncc(Cl)c(Nc3ccccc3S(=O)(=O)C(C)C)n2)c(OC(C)C)cc1C1CCNCC1 [CERITINIB]
inhibition in vivo at 25 mg/kg (BaF3 [26]): -3.8%

SMILES: CCc1cc2c(cc1N1CCC(N3CCOCC3)CC1)C(C)(C)c1[nH]c3cc(C#N)ccc3c1C2=O [ALECTINIB]
inhibition in vivo at 20 mg/kg (BaF3 [7]): 87.4%

IC50 (BaF3 [1]): 14 nM
IC50 (BaF3 [2]): 690 nM
IC50 (BaF3 [3]): 22 nM
IC50 (BaF3 [4]): 29 nM
SMILES: COc1cc(N2CCC(N3CCN(C)CC3)CC2)c(C)cc1Nc1ncc(Cl)c(Nc2ccc(C)cc2P(C)(C)=O)n1
Ratio [27]: 8
Ratio [6]: 8

IC50 (BaF3 [1]): 12 nM
IC50 (BaF3 [2]): 1030 nM
IC50 (BaF3 [3]): 5 nM
IC50 (BaF3 [4]): 25 nM
SMILES: COc1cc(N2CCC(N3CCN(C)CC3)CC2)c(C)cc1Nc1ncc(Br)c(Nc2ccc(Cl)cc2P(C)(C)=O)n1

IC50 (BaF3 [1]): 9 nM
IC50 (BaF3 [2]): 1080 nM
IC50 (BaF3 [3]): 19 nM
IC50 (BaF3 [4]): 17 nM
SMILES: COc1cc(N2CCC(N3CCN(C)CC3)CC2)c(C)cc1Nc1ncc(Br)c(Nc2ccc(F)cc2P(C)(C)=O)n1

IC50 (BaF3 [1]): 7 nM
IC50 (BaF3 [2]): 600 nM
IC50 (BaF3 [3]): 19 nM
IC50 (BaF3 [4]): 13 nM
SMILES: COc1cc(N2CCC(N3CCN(C)CC3)CC2)c(Cl)cc1Nc1ncc(Br)c(Nc2ccc(C)cc2P(C)(C)=O)n1

SMILES: C=CC(=O)Nc1cc(Nc2nccc(-c3cn(C)c4ccccc34)n2)c(OC)cc1N(C)CCN(C)C [OSIMERTINIB]
IC50 (BaF3 [2]): 75 nM
IC50 (BaF3 [3]): 790 nM
IC50 (PC-9): 2850 nM
IC50 [23]: 3360 nM
